One may read the EC50 as the concentration giving half of the maximal effect.

Each structure is given as a SMILES string.

Data set [1] is described as follows: In vivo pharmacokinetics (PFC microdialysis and plasma). The conditions noted are these: after gavage with 100 mg/kg; sustained over several hours. Details: species or system mouse. How it is done: Mice were anesthetized using isoflurane (2% and 800 mL/min 02). Before surgery, Finadyne (1 mg/kg, s.c.) was administered for analgesia during surgery and the post-surgical recovery period. A mixture of bupivacaine and epinephrine was used for local anesthesia of the incision site of the periost of the skull.
The animals were placed in a stereotaxic frame (Kopf instruments, USA). MetaQuant microdialysis probes with a 3 mm exposed polyacrylonitrile membrane (MQ-PAN 3/3, Brainlink, the Netherlands) were implanted into the prefrontal cortex (coordinates for the tip of the probe: AP=+2.0 mm (to bregma), lateral=−0.7 mm (to midline), ventral=−3.3 mm (to dura), with the incisor bar set at 0.0 mm and an angle of 8°). All coordinates were based on “The mouse brain in stereotaxic coordinates” by Paxinos and Franklin (2004). The probes were attached to the skull with a stainless steel screw and dental cement (Fuji Plus Capsules, Henry Schein, the Netherlands).
In the same surgical procedure, a catheter was placed into the jugular vein to accommodate blood sampling. An indwelling cannula was inserted into the right jugular vein, and exteriorized through an incision on top of the skull. […]
PK was measured for GP-04, GP-05, GP-07, GP-R1 and GP-P1 in the PFC (prefrontal cortex) and plasma of wild type C56Bl/6 mice by CRO Brainsonline.

Data set [2] concerns primary mouse astrocytes. Description: Extracellular lactate quantification, Example 2. It is filed as cell-based. Particulars: Astrocyte, 3 nM to 30 μM, 1.5 h, read-out: EC50 release of lactate. How it is done:
(§1) Primary cultures of cerebrocortical astrocytes were obtained from 1 to 2-day-old OF1 mouse pups (Charles River). Briefly, cortices were isolated and minced in small pieces under a dissecting microscope. The cells were incubated for 30 min at 37° C. in a solution containing 20 U/ml papain, 1 mM L-cysteine and 10 kU/ml DNase I. After dissociation, papain activity was stopped by the addition of fetal calf serum (FCS). Single-cell suspension was then obtained by mechanical dissociation, which consisted in cells trituration in a DMEM D7777 medium supplemented with 44 mm NaHCO3, 10 ml/L antibiotic/antimycotic solution and 10% FCS. […]
Secretion of L-lactate was measured in the extracellular medium of 96-well plated astrocytes after 90 min stimulation (at 37° C., in 5% CO2/95% air conditions) with Vehicle (DMSO), the compounds of the invention (100 nM to 100 μM) or positive control. […] To quantify lactate concentrations in the extracellular medium, 200 μl of a 0.2M Glycine-semicarbazide buffer (pH 10) containing 3 mM NAD and 14 U/ml LDH was added to each well of a 96-well plate containing 30 μl aliquots of extracellular medium. […] Fluorescence intensity (340 nm excitation/450 nm emission), which represents the amount of NADH produced, was measured, and lactate concentration values were determined relative to a standard curve of L-lactate concentrations. […]

In data set [3] the test system is primary mouse astrocytes. Description: Extracellular medium acidification (SNARF5), Example 2. In kind it is cell-based. Particulars: Astrocyte, 3 nM to 30 μM, 1.5 h and 3 h. How it is done: as §1
Secretion of lactate was measured indirectly through the acidification of extracellular medium using extracellular pH sensor SNARE-5F-(AND-6)-CAR (SNARF5). […] After 90 min stimulation, fluorescence was read at exc. […] The ratio of fluorescence between 630 nm and 580 emission values, which is proportional to extracellular pH, was calculated. […]
The extracellular medium acidification in primary mouse astrocytes treated with GP-A1 was quantified (FIG. 13). Extracellular medium acidification was measured over a period of 1.5 h and 3 h.

On to `CC(=O)N1CCc2sc(S(=O)(=O)N3CCN(c4ccccc4C)CC3)cc2C1` [P025-0159], for which, in data set [1], the “Levels in the PFC” value was “need chemical improvement to reach their target at therapeutic dose in the brain”.
As to `Cc1ccccc1NC(=O)C1CCCN(c2ncnc3oc(C)c(C)c23)C1` (stereo not shown) [F228-0422], the EC50 is 590 nM in the data set with primary mouse astrocytes [2] and 370 to 480 nM with primary mouse astrocytes [3].
`COc1cc(C)c(Cl)cc1S(=O)(=O)NCc1ccncc1` [T5580243]: the “Levels in the PFC” value in data set [1] is given as “at therapeutic range (100 nM to 1 uM)”.

The values above are taken from patent US12274703B2, “Compositions and methods of treatment for neurological disorders comprising a dementia” (Gliapharm SA, priority 2017, dated 2025).
